Molecular target: Neuraminidase (Influenza A virus, UniProt B4URF0)
Assay: Inhibition of Influenza A virus neuraminidase activity

Sequence of Neuraminidase (B4URF0 whole entry): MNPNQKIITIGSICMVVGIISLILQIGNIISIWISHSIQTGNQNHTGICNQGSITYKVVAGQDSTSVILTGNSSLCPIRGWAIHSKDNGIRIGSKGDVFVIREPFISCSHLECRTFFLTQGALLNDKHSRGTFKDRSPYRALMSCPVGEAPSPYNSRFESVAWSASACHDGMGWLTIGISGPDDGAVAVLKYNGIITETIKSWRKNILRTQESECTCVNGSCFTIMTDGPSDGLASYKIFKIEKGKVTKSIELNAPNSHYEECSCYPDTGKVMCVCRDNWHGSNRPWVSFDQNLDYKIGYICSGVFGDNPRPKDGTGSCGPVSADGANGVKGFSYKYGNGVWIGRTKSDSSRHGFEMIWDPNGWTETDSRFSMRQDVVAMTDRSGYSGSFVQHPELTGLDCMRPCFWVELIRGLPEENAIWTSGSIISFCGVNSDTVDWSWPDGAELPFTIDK

COc1cc(Cl)nc(NC(=S)NC(=O)c2ccc(Cl)nc2)n1 was tested. Which IC50 did it give?
The IC50 was over 20000 nM.

Which IC50 does the source give for CC(C)(C)NC(=O)NC(=S)NC(=O)c1c(F)cccc1F here?
The IC50 was 1430 nM.

Which IC50 does the source give for Cc1cc(O)nc(NC(=S)NC(=O)c2ccc(-c3ccc([N+](=O)[O-])cc3)o2)n1 here?
Its IC50 is 360 nM.

For COc1cc(C)nc(NC(=S)NC(=O)c2ccc(Cl)nc2)n1, which IC50 is on record?
The IC50 was over 20000 nM.

COc1cc(C)nc(NC(=S)NC(=O)c2ccc(-c3ccccc3Cl)o2)n1 was tested. Which IC50 did it give?
The IC50 was over 20000 nM.

How did the IC50 turn out when COc1cc(OC)nc(NC(=S)NC(=O)c2ccc(-c3ccccc3Cl)o2)n1 was run?
Its IC50 is 1770 nM.

With CC(C)(C)NC(=O)NC(=S)NC(=O)c1ccccc1 as the molecule, how does the IC50 read?
The IC50 was 1790 nM.

How did the IC50 turn out when COc1cc(C)nc(NC(=S)NC(=O)c2ccc(-c3ccc([N+](=O)[O-])cc3)o2)n1 was run?
Its IC50 is 1220 nM.

With CCOc1cc(Cl)nc(NC(=S)NC(=O)c2ccc(-c3ccccc3Cl)o2)n1 as the molecule, how does the IC50 read?
The IC50 was over 20000 nM.

CCOc1cc(OCC)nc(NC(=S)NC(=O)c2cccnc2Cl)n1 was tested. Which IC50 did it give?
Its IC50 is over 20000 nM.

Which IC50 does the source give for CC(C)(C)NC(=O)NC(=S)NC(=O)c1ccc(-c2ccc([N+](=O)[O-])cc2)o1 here?
The IC50 was 1300 nM.

Which IC50 does the source give for COc1cc(OC)nc(NC(=S)NC(=O)c2cccnc2)n1 here?
Its IC50 is over 20000 nM.

How did the IC50 turn out when COc1cc(Cl)nc(NC(=S)NC(=O)c2cccnc2Cl)n1 was run?
The IC50 was 2590 nM.

How did the IC50 turn out when Cc1cc(O)nc(NC(=S)NC(=O)c2ccc(Cl)nc2)n1 was run?
The IC50 was 8580 nM.

For CC(C)[C@H](C(=O)NC(=S)NC(=O)NC(C)(C)C)c1ccc(Cl)cc1, which IC50 is on record?
The IC50 was 1350 nM.

Which IC50 does the source give for CCOc1cc(C)nc(NC(=S)NC(=O)c2ccc(-c3ccc([N+](=O)[O-])cc3)o2)n1 here?
Its IC50 is 2300 nM.

With CCOc1cc(C)nc(NC(=S)NC(=O)c2ccc(-c3ccccc3Cl)o2)n1 as the molecule, how does the IC50 read?
The IC50 was 1650 nM.

For CC(C)(C)NC(=O)NC(=S)NC(=O)COc1ccc(Cl)cc1Cl, which IC50 is on record?
Its IC50 is 1670 nM.

With Cc1cc(C)nc(NC(=S)NC(=O)c2cccnc2Cl)n1 as the molecule, how does the IC50 read?
The IC50 was 7190 nM.

How did the IC50 turn out when CC(C)(C)NC(=O)NC(=S)NC(=O)c1ccc(-c2ccccc2Cl)o1 was run?
Its IC50 is 1420 nM.

With COc1cc(OC)nc(NC(=S)NC(=O)c2cnc(Cl)c(Cl)c2)n1 as the molecule, how does the IC50 read?
The IC50 was 18500 nM.

O=C(NC(=S)Nc1nc(Cl)cc(Cl)n1)c1ccc(-c2ccccc2Cl)o1 was tested. Which IC50 did it give?
Its IC50 is 14500 nM.

CCOc1cc(OCC)nc(NC(=S)NC(=O)c2ccc(-c3ccc([N+](=O)[O-])cc3)o2)n1 was tested. Which IC50 did it give?
The IC50 was over 20000 nM.

Which IC50 does the source give for CCOc1cc(OCC)nc(NC(=S)NC(=O)c2ccc(Cl)nc2)n1 here?
Its IC50 is over 20000 nM.

With Cc1cc(O)nc(NC(=S)NC(=O)c2ccc(-c3ccccc3Cl)o2)n1 as the molecule, how does the IC50 read?
The IC50 was 320 nM.

With COC(=O)NC(=S)NC(=O)NC(C)(C)C as the molecule, how does the IC50 read?
Its IC50 is 1830 nM.

CCOc1cc(OCC)nc(NC(=S)NC(=O)c2ccc(-c3ccccc3Cl)o2)n1 was tested. Which IC50 did it give?
Its IC50 is 80 nM.

Which IC50 does the source give for CCOc1cc(Cl)nc(NC(=S)NC(=O)c2cccnc2Cl)n1 here?
Its IC50 is over 20000 nM.

COc1cc(Cl)nc(NC(=S)NC(=O)c2ccc(-c3ccccc3Cl)o2)n1 was tested. Which IC50 did it give?
The IC50 was 1290 nM.

For CC(C)(C)NC(=O)NC(=S)NC(=O)[C@H]1[C@H](C=C(Cl)Cl)C1(C)C, which IC50 is on record?
Its IC50 is 260 nM.

For CC(C)C(C(=O)NC(=S)Nc1nc(Cl)cc(Cl)n1)c1ccc(Cl)cc1 (stereo not given), which IC50 is on record?
Its IC50 is over 20000 nM.

How did the IC50 turn out when COc1cc(OC)nc(NC(=S)NC(=O)C2C(/C=C(\Cl)C(F)(F)F)C2(C)C)n1 (stereo not given) was run?
The IC50 was 970 nM.

With CC(C)(C)NC(=O)NC(=S)NC(=O)[C@@H]1[C@H](/C=C(\Cl)C(F)(F)F)C1(C)C as the molecule, how does the IC50 read?
Its IC50 is 510 nM.

With COc1cc(OC)nc(NC(=S)NC(=O)COc2ccc(Cl)cc2Cl)n1 as the molecule, how does the IC50 read?
The IC50 was 1890 nM.

Cc1cc(C)nc(NC(=S)NC(=O)c2ccc(Cl)cc2F)n1 was tested. Which IC50 did it give?
The IC50 was 1360 nM.

For Cc1cc(C)nc(NC(=S)NC(=O)c2ccccc2)n1, which IC50 is on record?
Its IC50 is 2100 nM.

For COc1cc(Cl)nc(NC(=S)NC(=O)c2ccc(Cl)cc2F)n1, which IC50 is on record?
The IC50 was 5100 nM.

With O=C(NC(=S)Nc1nc(Cl)cc(Cl)n1)c1ccc(-c2ccc([N+](=O)[O-])cc2)o1 as the molecule, how does the IC50 read?
Its IC50 is 1660 nM.

Cc1cc(C)nc(NC(=S)NC(=O)C2C(/C=C(\Cl)C(F)(F)F)C2(C)C)n1 (stereo not given) was tested. Which IC50 did it give?
Its IC50 is 580 nM.

CCOc1cc(OCC)nc(NC(=S)NC(=O)C(c2ccc(Cl)cc2)C(C)C)n1 (stereo not given) was tested. Which IC50 did it give?
Its IC50 is 310 nM.
